Test results as given in ChEMBL document CHEMBL1137558, “Synthesis and biological evaluation of new 2-arylcarbonyl-3-trifluoromethylquinoxaline 1,4-di-N-oxide derivatives and their reduced analogues” (2007).

Legend:
CCRF-CEM = assay: Anticancer activity against CCRF-CEM cells; type: functional; conditions: Homo sapiens
MOLT-4 = assay: Anticancer activity against MOLT4 cells; type: functional; conditions: Homo sapiens
SR = assay: Anticancer activity against SR cells; type: functional; conditions: Homo sapiens
HL-60 = assay: Anticancer activity against HL60 cells; type: functional; conditions: Homo sapiens
[1] = Anticancer activity against leukemia cells; type: functional; conditions: Homo sapiens, Leukemia cell
[2] = Anticancer activity against nonsmall lung cancer cells; type: functional; conditions: Homo sapiens, Cancer cell lines
[3] = Anticancer activity against colon cancer cells; type: functional; conditions: Homo sapiens, Cancer cell lines
[4] = Anticancer activity against CNS cancer cells; type: functional; conditions: Homo sapiens, Cancer cell lines
[5] = Anticancer activity against melanoma cells; type: functional; conditions: Homo sapiens, Melanoma cell
[6] = Anticancer activity against ovarian cancer cells; type: functional; conditions: Homo sapiens, Cancer cell lines
[7] = Anticancer activity against renal cancer cells; type: functional; conditions: Homo sapiens, Cancer cell lines
[8] = Anticancer activity against prostate cancer cells; type: functional; conditions: Homo sapiens, Cancer cell lines
[9] = Anticancer activity against breast cancer cells; type: functional; conditions: Homo sapiens, Cancer cell lines
[10] = Anticancer activity against human NCI60 cells; type: functional; conditions: for CC50: read-out: LC50 (the source's name)
NCI-H460 = assay: Growth inhibition of NCI-H460 cells at 100 uM after 48 hrs; type: functional, Homo sapiens; set-up: scale not given: the % may be the effect or the level left
MCF7 = assay: Growth inhibition of MCF7 cells at 100 uM after 48 hrs; type: functional, Homo sapiens; set-up: scale not given: the % may be the effect or the level left
SF-268 = assay: Growth inhibition of SF268 cells at 100 uM after 48 hrs; type: functional, Homo sapiens; set-up: scale not given: the % may be the effect or the level left
K562 = assay: Anticancer activity against K562 cells; type: functional; conditions: Homo sapiens

| SMILES | GI50 (CCRF-CEM) [nM] | GI50 (MOLT-4) [nM] | GI50 (SR) [nM] | GI50 (HL-60) [nM] | GI50 [1] [nM] | GI50 [2] [nM] | GI50 [3] [nM] | GI50 [4] [nM] | GI50 [5] [nM] | GI50 [6] [nM] | GI50 [7] [nM] | GI50 [8] [nM] | GI50 [9] [nM] | GI50 [10] [nM] | TGI [10] [nM] | CC50 [10] [nM] | Activity (NCI-H460) [%] | Activity (MCF7) [%] | Activity (SF-268) [%] | GI50 (K562) [nM] |
| --- | --- | --- | --- | --- | --- | --- | --- | --- | --- | --- | --- | --- | --- | --- | --- | --- | --- | --- | --- | --- |
| O=C(c1cccs1)c1c(C(F)(F)F)[n+]([O-])c2cc(C(F)(F)F)ccc2[n+]1[O-] | 70 | 20 | 20 | < 10 | 30 | 300 | 150 | 180 | 330 | 200 | 240 | 150 | 180 | 180 | 470 | 1480 |  |  |  |  |
| COc1ccc2c(c1)[n+]([O-])c(C(=O)c1ccc3ccccc3c1)c(C(F)(F)F)[n+]2[O-] |  |  |  |  |  | 800 |  |  |  |  |  |  |  |  |  |  | <32 | <32 | <32 |  |
| O=C(c1cccs1)c1c(C(F)(F)F)[n+]([O-])c2cc(Cl)c(Cl)cc2[n+]1[O-] | < 10 | < 10 | < 10 |  | 20 | 2040 | 590 | 670 | 940 | 1160 | 1600 | 790 | 790 | 740 | 3020 | 11000 |  |  |  | < 10 |
| O=C(c1ccccc1)c1c(C(F)(F)F)[n+]([O-])c2ccc(C(F)(F)F)cc2[n+]1[O-] |  |  |  |  | 240 | 640 | 460 | 690 | 1130 | 580 | 330 | 270 | 540 | 510 | 1230 | 3890 |  |  |  |  |
| O=C(c1cccs1)c1c(C(F)(F)F)[n+]([O-])c2ccccc2[n+]1[O-] |  |  |  |  | 13900 | 350 | 830 | 1450 | 1390 | 750 | 480 | 400 | 850 | 980 | 3890 | 11200 |  |  |  |  |
| COc1ccc2c(c1)[n+]([O-])c(C(=O)c1ccco1)c(C(F)(F)F)[n+]2[O-] |  |  |  |  | 3960 | 3490 | 2510 | 3200 | 3030 | 2510 | 1740 | 3160 | 2880 | 2820 | 18600 | 74100 |  |  |  |  |
| O=C(c1ccco1)c1nc2cc(C(F)(F)F)ccc2nc1C(F)(F)F |  |  |  |  | 54000 | 81500 | 100000 | 75900 | 100000 | 90800 | 100000 | 100000 | 84000 | 87100 | 97700 | > 100000 |  |  |  |  |
| O=C(c1ccco1)c1c(C(F)(F)F)[n+]([O-])c2ccc(F)cc2[n+]1[O-] |  |  |  |  | 300 | 3130 | 1060 | 2350 | 1560 | 2030 | 2410 | 2600 | 1330 | 1620 | 4270 | 15800 |  | 72 | 82 |  |
